Measurements reported in patent US5582832A, “Compositions for topical application to skin” (priority 1995, dated 1996).

Key:
Type in all cases: cell-based, human
[1] = tested on: 25D degradation (vitamin D metabolism in keratinocytes); experiment: Vitamin D metabolism in keratinocytes: 25D degradation; settings: for blocking of 25D degradation (in words) / 25D degradation (%): 1 uM; for blocking of 25D degradation (in words): 20 hours (Table 2); for % degradation (25D): Table 1, 10 uM compound; for 25D degradation (%): Table 2, 20 hour incubation, mean of duplicate (range); for 25D (% degradation): Table 3, 10 uM; for inhibition of 25D metabolism (in words): results of Table 1
Protocol: (§1) 1. Normal human keratinocytes isolated from neonatal foreskins by trypsin treatment were grown in DME medium/10% fetal calf serum in the presence of irradiated 3T3 mouse fibroblasts for establishing dividing keratinocyte colonies. Keratinocytes were grown under the above condition until their third passage.
(§2) 80% confluent keratinocytes were incubated with 0.05 uCi of ^3 H-25D or ^3 H-1,25D for two hours or 20 hours in the presence of 1-100 uM of the different compounds. Reaction was stopped by addition of methanol and the cells and medium were extracted using chloroform:methanol. The chloroform layer was separated, dried and spotted on TLC plates. […] The amount of radioactivity in each lane was quantitated using the BioScan radioactive plate reader. The amount of radioactivity remaining in the peak area of 25D and 1,25D were calculated as % of control. The % remaining was subtracted from 100 to get the % degradation of the metabolites.
(§3) The data are expressed as mean of % degradation of 25D or 1,25D. The range is also given in parenthesis.

[2] = tested on: 1,25D degradation (vitamin D metabolism in keratinocytes); experiment: Vitamin D metabolism in keratinocytes: 1,25D degradation; settings: for blocking of 1,25D degradation (in words) / 1,25D degradation (%): 1 uM; for blocking of 1,25D degradation (in words): 20 hours (Table 2); for % degradation (1,25D): Table 1, 10 uM compound; for 1,25D degradation (%): Table 2, 20 hour incubation, mean of duplicate (range); for 1,25D (% degradation): Table 3, 10 uM; for inhibition of 1,25D metabolism (in words): results of Table 1
Protocol: as §1, §2, §3

keratinocytes = experiment: Rate of DNA synthesis (3H-thymidine incorporation) in keratinocytes; settings: for DNA synthesis, % of control (100 nM 1,25D + 5 uM ceramide Formula A) / DNA synthesis, % of control (azole, only 100 nM 1,25D): Table 4; for DNA synthesis, % of control (100 nM 1,25D + 5 uM ceramide Formula A): 10 uM azole (or no azole) + 100 nM 1,25D + 5 uM ceramide Formula A; for DNA synthesis, % of control (100 nM 1,25D + 5 uM ceramide Formula A) / DNA synthesis, % of control (azole, only 100 nM 1,25D) / DNA synthesis: mean + SD; for DNA synthesis, % of control (100 nM 1,25D + 5 uM ceramide Formula A) / keratinocyte DNA synthesis, % of the corresponding controls (10 uM Econazole) / keratinocyte DNA synthesis, % of the corresponding controls (no azole): * = synergistic effect; for DNA synthesis, % of control (azole, only 100 nM 1,25D): 10 uM azole, no ceramide; for DNA synthesis, % of control (azole, only 100 nM 1,25D) / DNA synthesis / DNA synthesis (% control) / keratinocyte DNA synthesis, % of the corresponding controls (1 uM Econazole) / keratinocyte DNA synthesis, % of the corresponding controls (10 uM Econazole) / keratinocyte DNA synthesis, % of the corresponding controls (no azole): 100 nM 1,25D; for keratinocyte DNA synthesis, % of the corresponding controls (1 uM Econazole) / keratinocyte DNA synthesis, % of the corresponding controls (10 uM Econazole) / keratinocyte DNA synthesis, % of the corresponding controls (no azole): Table 5; for keratinocyte DNA synthesis, % of the corresponding controls (1 uM Econazole): 1 uM ceramide + 1 uM Econazole; for keratinocyte DNA synthesis, % of the corresponding controls (10 uM Econazole): 1 uM ceramide + 10 uM Econazole; for keratinocyte DNA synthesis, % of the corresponding controls (no azole): 1 uM ceramide
Protocol: as §1
2. For the experiments, third passage keratinocytes were plated into a serum-free keratinocyte growth medium (KSFM; obtained from Life Technologies, Grand Island, N.Y.) containing 0.09 mM calcium. 20,000 to 30,000 cells were plated into each well of 24 well cell culture plates and grown for 5 days, until the cells reach about 80% confluence.
3. Medium was changed to fresh medium and the various test materials were added to the medium from an ethanolic stock solution (10:00 AM). The final ethanol concentration in the cultures was kept below 0.2%. Control cultures received no tested material but were dosed with 0.2% ethanol. Each compound or combination was tested in three separate wells. By 4:00 PM, 1 uCi of ^3 H-thymidine (Amersham Corp., Sp activity 40 Ci/mmol) was added to the 1 ml medium in each well. The cells were incubated overnight and […] (10:00 AM next day) the amount of ^3 -thymidine associated with the cellular DNA of keratinocytes was assessed as described below.
4. The medium was aspirated, and the wells washed with 1 ml phosphate-buffered saline. The DNA and proteins of the cells in the plate were then precipitated by adding 1 ml of ice-cold 10% trichloroacetic acid (TCA). The plates were left on ice for 30 minutes to complete the precipitation process. TCA was then aspirated and each well was then washed four times with 5% TCA. The plates were then dried on a filter pad and the cells in the wells were dissolved in 0.5 ml of 0.1N sodium hydroxide. The sodium hydroxide was then neutralized using 0.1N hydrochloric acid and the solution (1 ml total volume) was then transferred to a scintillation vial. 50 μl samples from each vial were used for protein assay using BCA protein assay reagent obtained from Pierce Chemical Company. 8 ml of a scintillation fluid (Ecolume) was added to the rest of the solution in the vial, and the vials were counted in a scintillation counter to determine the amount of radioactivity in each vial. The DNA synthesis rate was then calculated as cpm ^3 H thymidine incorporated into total cellular DNA/microgram of cell protein for each individual well. Mean and standard deviation for each group was also calculated.
Rationale for using 1,25D is that in in vivo situation, these azoles will inhibit the endogenous degradation of the 1,25D which is obtained from the circulation. Azoles will act in keratinocytes to increase the endogenous levels of 1,25D within cells. Keratinocytes (70% confluent) were incubated with 10 uM of the different azoles in the presence of 100 nM 1,25D. One of the groups was treated with 5 uM of ceramide of Formula A in the medium. After four hours, all the wells were treated with 1 uCi ^3 H-thymidine and the rate of DNA synthesis was estimated as described in the methods.
Keratinocytes were incubated with 1 or 10 uM of Econazole in the presence of 1 uM of the different ceramide analogues and 100 nM 1,25D in the medium. Thymidine incorporation was measured with an overnight incubation as described in Example 2.

[3] = Tables 4A-4F, azole 10 uM, ceramide Formula A 5 uM
[4] = Tables 4A-4F, azole 10 uM, 1440 min
[5] = Tables 5A-5I, Econazole 10 uM, ceramide analogue 1 uM

## Clc1ccccc1C(c1ccccc1)(c1ccccc1)n1ccnc1 [Clotrimazole]
[1]
  blocking of 25D degradation (in words): very effective
  % degradation (25D): 5%
  25D degradation (%): 47.4 (42.6-52.2) %
  inhibition of 25D metabolism (in words): most potent
[1]; 2 hours
  blocking of 25D metabolism (in words): ineffective
  25D (% degradation): 79%
[1]; 20 hours
  blocking of 25D metabolism (in words): very effective
  25D (% degradation): 5%
[2]
  blocking of 1,25D degradation (in words): very effective
  % degradation (1,25D): 2%
  1,25D degradation (%): 29.5 (21.8-37.2) %
  inhibition of 1,25D metabolism (in words): most potent
[2]; 2 hours
  blocking of 1,25D metabolism (in words): ineffective
  1,25D (% degradation): 77%
[2]; 20 hours
  blocking of 1,25D metabolism (in words): very effective
  1,25D (% degradation): 2%
keratinocytes; 1440 min
  DNA synthesis, % of control (100 nM 1,25D + 5 uM ceramide Formula A): 19.5 + 0.77 % of control
  DNA synthesis, % of control (azole, only 100 nM 1,25D): 35.2 + 6.5 % of control
keratinocytes; [3]
  DNA synthesis: 51610 + 6735 cpm 3H thymidine incorporated
keratinocytes; [4]
  DNA synthesis (% control): 35.2 % control

## Clc1ccc(COC(Cn2ccnc2)c2ccc(Cl)cc2Cl)cc1 (centres unmarked) [Econazole]
[1]
  blocking of 25D degradation (in words): very effective
  % degradation (25D): 5%
  25D degradation (%): 54.1 (44.3-63.9) %
  inhibition of 25D metabolism (in words): most potent
[1]; 2 hours
  blocking of 25D metabolism (in words): ineffective
  25D (% degradation): 92%
[1]; 20 hours
  blocking of 25D metabolism (in words): very effective
  25D (% degradation): 5%
[2]
  blocking of 1,25D degradation (in words): very effective
  % degradation (1,25D): 2%
  1,25D degradation (%): 46.8 (45.1-48.6) %
  inhibition of 1,25D metabolism (in words): most potent
[2]; 2 hours
  blocking of 1,25D metabolism (in words): ineffective
  1,25D (% degradation): 78%
[2]; 20 hours
  blocking of 1,25D metabolism (in words): very effective
  1,25D (% degradation): 2%
keratinocytes; 1440 min
  DNA synthesis, % of control (100 nM 1,25D + 5 uM ceramide Formula A): 22.5 + 2.4 % of control
  DNA synthesis, % of control (azole, only 100 nM 1,25D): 64.5 + 3.9 % of control
keratinocytes; [3]
  DNA synthesis: 94719 + 5732 cpm 3H thymidine incorporated
keratinocytes; [4]
  DNA synthesis (% control): 64.57 % control
keratinocytes; [5]
  DNA synthesis (% control): 50.5 % control
  DNA synthesis: 15147 + 4337 cpm 3H thymidine incorporated

## CCCCCCCCCCCCC/C=C/C(O)C(CO)NC(C)=O (centres unmarked) [Formula A]
keratinocytes; 1440 min
  DNA synthesis, % of control (100 nM 1,25D + 5 uM ceramide Formula A): 81.1 + 16.5 % of control
keratinocytes
  keratinocyte DNA synthesis, % of the corresponding controls (1 uM Econazole): 75.9 + 23.3%
  keratinocyte DNA synthesis, % of the corresponding controls (10 uM Econazole): 38.2 + 13.9%
  keratinocyte DNA synthesis, % of the corresponding controls (no azole): 97 + 32%
keratinocytes; Tables 4A-4F, azole 10 uM, ceramide Formula A 5 uM, 1440 min
  DNA synthesis (% control): 74.14 % control
keratinocytes; [3]
  DNA synthesis: 108753 + 24719 cpm 3H thymidine incorporated
keratinocytes; [5]
  DNA synthesis (% control): 97.7 % control
  DNA synthesis: 29272 + 11126 cpm 3H thymidine incorporated

## CCCCCCCCCCCCC/C=C/C(O)C(CO)NC(=O)CCCCC (centres unmarked) [Formula B]
keratinocytes
  keratinocyte DNA synthesis, % of the corresponding controls (1 uM Econazole): 123.9 + 30.3%
  keratinocyte DNA synthesis, % of the corresponding controls (10 uM Econazole): 61.7 + 17%
  keratinocyte DNA synthesis, % of the corresponding controls (no azole): 126.6 ± 17.8%
keratinocytes; [5]
  DNA synthesis (% control): 126 % control
  DNA synthesis: 37927 + 6562 cpm 3H thymidine incorporated

## CCCCCCCCCCCCCCC(O)CN(CCO)C(C)=O (centres unmarked) [Formula C]
keratinocytes
  keratinocyte DNA synthesis, % of the corresponding controls (1 uM Econazole): 78.0 + 15.1%
  keratinocyte DNA synthesis, % of the corresponding controls (10 uM Econazole): 47.2 + 33.6%
  keratinocyte DNA synthesis, % of the corresponding controls (no azole): 77.7 ± 7.4%
keratinocytes; [5]
  DNA synthesis (% control): 77.7 % control
  DNA synthesis: 23288 + 2737 cpm 3H thymidine incorporated

## CCCCCCCCCCCCCCC(O)CN(CCO)C(=O)CCCCC (centres unmarked) [Formula D]
keratinocytes; 1 uM, absence of azole
  growth inhibition by ceramide analogues (in words): significantly inhibitory
keratinocytes
  keratinocyte DNA synthesis, % of the corresponding controls (1 uM Econazole): 97.0 + 19.5%
  keratinocyte DNA synthesis, % of the corresponding controls (10 uM Econazole): 28.8 + 3.9%
  keratinocyte DNA synthesis, % of the corresponding controls (no azole): 69.5 ± 11.3%
keratinocytes; [5]
  DNA synthesis (% control): 69.5 % control
  DNA synthesis: 20817 + 3928 cpm 3H thymidine incorporated

## CCCCCCCCCCCCCCCCOCC(O)CN(CCO)C(C)=O (centres unmarked) [Formula E]
keratinocytes
  keratinocyte DNA synthesis, % of the corresponding controls (1 uM Econazole): 99.8 + 19.1%
  keratinocyte DNA synthesis, % of the corresponding controls (10 uM Econazole): 20.5 + 12.9%
  keratinocyte DNA synthesis, % of the corresponding controls (no azole): 104.3 ± 17.7%
keratinocytes; [5]
  DNA synthesis (% control): 104.4 % control
  DNA synthesis: 31267 + 6143 cpm 3H thymidine incorporated
